Source: ChEMBL document CHEMBL5120788, “Structure-activity relationship studies of functionalized aromatic peptidomimetics as neurolysin activators” (Bioorg Med Chem Lett, 2022)

Legend:
[1] = molecular target: Neurolysin, mitochondrial (Rattus norvegicus, UniProt P42676); assay: Activation of recombinant rat Nln using MCA-Pro-Leu-Gly-Pro-D-Lys (DNP)-OH as substrate preincubated for 10 mins followed by substrate addition and measured after 20 mins by fluorescence based assay
[2] = molecular target: Neurolysin, mitochondrial (Rattus norvegicus) (UniProt P42676); assay: Activation of recombinant rat Nln assessed as maximal efficacy using MCA-Pro-Leu-Gly-Pro-D-Lys (DNP)-OH as substrate preincubated for 10 mins followed by substrate addition and measured after 20 mins by fluorescence based assay relative to control; conditions: filed as activator, time 30.0 min
[3] = Permeability of compound in mouse BEND3 cells co-cultured with mouse primary astrocytes measured upto 120 mins by LC-MS/MS; format: ADME, cell-based; conditions: 2 h

Neurolysin, mitochondrial, sequence (P42676 whole entry): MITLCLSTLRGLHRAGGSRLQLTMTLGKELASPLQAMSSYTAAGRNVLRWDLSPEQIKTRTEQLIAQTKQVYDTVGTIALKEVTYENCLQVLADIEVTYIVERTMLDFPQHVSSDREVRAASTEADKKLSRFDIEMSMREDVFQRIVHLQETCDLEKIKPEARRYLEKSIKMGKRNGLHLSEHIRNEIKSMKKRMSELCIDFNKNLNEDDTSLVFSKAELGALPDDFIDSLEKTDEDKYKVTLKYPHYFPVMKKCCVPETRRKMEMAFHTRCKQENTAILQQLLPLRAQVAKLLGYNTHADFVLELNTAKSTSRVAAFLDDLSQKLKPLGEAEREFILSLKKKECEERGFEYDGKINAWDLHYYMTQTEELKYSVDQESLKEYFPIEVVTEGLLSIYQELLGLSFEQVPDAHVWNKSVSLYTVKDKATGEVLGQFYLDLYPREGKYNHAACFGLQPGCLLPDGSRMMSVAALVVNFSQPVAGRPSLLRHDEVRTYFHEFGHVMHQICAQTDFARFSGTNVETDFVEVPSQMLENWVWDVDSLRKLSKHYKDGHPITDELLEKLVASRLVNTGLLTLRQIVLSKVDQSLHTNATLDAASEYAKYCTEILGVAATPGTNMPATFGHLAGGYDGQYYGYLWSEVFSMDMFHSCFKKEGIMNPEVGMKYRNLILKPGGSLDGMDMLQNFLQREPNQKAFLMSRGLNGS
Neurolysin, mitochondrial (Rattus norvegicus), sequence (P42676 38-704 limits assumed): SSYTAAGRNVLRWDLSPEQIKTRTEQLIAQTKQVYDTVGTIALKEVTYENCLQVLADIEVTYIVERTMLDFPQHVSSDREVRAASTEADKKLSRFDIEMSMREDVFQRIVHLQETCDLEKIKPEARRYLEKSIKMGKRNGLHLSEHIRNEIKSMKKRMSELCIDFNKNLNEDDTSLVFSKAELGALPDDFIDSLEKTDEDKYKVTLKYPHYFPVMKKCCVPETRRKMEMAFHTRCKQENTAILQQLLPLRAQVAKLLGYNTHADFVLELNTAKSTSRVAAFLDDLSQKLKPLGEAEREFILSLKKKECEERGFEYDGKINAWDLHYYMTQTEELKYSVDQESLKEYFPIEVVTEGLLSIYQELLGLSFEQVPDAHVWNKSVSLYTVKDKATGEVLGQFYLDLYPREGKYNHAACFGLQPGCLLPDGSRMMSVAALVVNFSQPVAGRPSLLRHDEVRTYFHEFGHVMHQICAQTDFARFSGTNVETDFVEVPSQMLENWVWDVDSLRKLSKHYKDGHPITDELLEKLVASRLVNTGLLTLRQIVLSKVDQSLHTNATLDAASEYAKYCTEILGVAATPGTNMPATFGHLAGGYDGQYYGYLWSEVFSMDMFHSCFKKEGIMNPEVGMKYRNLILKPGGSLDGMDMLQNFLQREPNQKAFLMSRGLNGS

EC50 [1] [µM]	Emax [2] [%]	permeability [3]	SMILES
24.8	382		N[C@@H](Cc1c[nH]cn1)C(=O)Nc1cccc(F)c1
117	436		COc1cc(NC(=O)[C@@H](N)Cc2c[nH]cn2)cc(OC)c1OC
36.1	403		N[C@H](Cc1c[nH]cn1)C(=O)Nc1ccc(F)cc1
136	488		N[C@@H](Cc1c[nH]cn1)C(=O)Nc1ccc(F)cc1
241	582		COc1ccc(NC(=O)[C@@H](N)Cc2c[nH]cn2)cc1
25.2	368		N[C@@H](Cc1c[nH]cn1)C(=O)Nc1ccc(C(F)(F)F)cc1C(F)(F)F
214	540		COc1ccc(NC(=O)[C@H](N)Cc2c[nH]cn2)cc1
37.5	268		N[C@@H](Cc1c[nH]cn1)C(=O)Nc1ccccc1F
53.5	428		COc1ccccc1NC(=O)[C@H](N)Cc1c[nH]cn1
15.6	325	Permeable	N[C@H](Cc1c[nH]cn1)C(=O)Nc1ccc(C(F)(F)F)cc1
32.2	335		N[C@@H](Cc1c[nH]cn1)C(=O)Nc1ccc(C(F)(F)F)cc1
30.9	396		N[C@H](Cc1c[nH]cn1)C(=O)Nc1cccc(F)c1
279	633		N[C@@H](Cc1c[nH]cn1)C(=O)Nc1cc(C(F)(F)F)cc(C(F)(F)F)c1
22.8	362		N[C@H](Cc1c[nH]cn1)C(=O)Nc1cccc(C(F)(F)F)c1
52.1	463	Permeable	COc1cc(NC(=O)[C@@H](N)Cc2c[nH]cn2)cc(OC)c1
26.7	370		N[C@@H](Cc1c[nH]cn1)C(=O)Nc1c(F)cc(Br)cc1F
28.6	312		N[C@@H](Cc1c[nH]cn1)C(=O)Nc1cccc(C(F)(F)F)c1
45.1	426		COc1ccccc1NC(=O)[C@@H](N)Cc1c[nH]cn1
105	454		COc1cccc(NC(=O)[C@@H](N)Cc2c[nH]cn2)c1
78.2	331		N[C@H](Cc1c[nH]cn1)C(=O)Nc1ccccc1F
90.6	431		N[C@@H](Cc1c[nH]cn1)C(=O)Nc1cc(F)cc(F)c1
121	478		COc1cccc(NC(=O)[C@H](N)Cc2c[nH]cn2)c1
